Consider three compounds from article PMC12785803, “Novel ACE-Inhibitory Peptides from Royal Jelly Proteins: Comprehensive Screening, Mechanistic Insights, and Endothelial Protection” (Foods, 2025).

No end group written: not given here.

Data set [1] deals with EA.hy926 cells. Kind of data set: SOD activity in H2O2-damaged cells. In kind it is cell-based. Conditions: captopril; vs H2O2 group. On the procedure: (§1) The activities of SOD and GSH-Px were assessed as follows. EA.hy926 cells were seeded in 6-well plates at 4 × 10^5 cells per well and cultured overnight. After attachment, the cells were serum-starved in high-glucose DMEM containing 1% FBS for 12 h, and then treated for 24 h with peptide solutions at the indicated concentrations or with captopril. […] After treatment, the cells were washed with ice-cold PBS, lysed on ice, and centrifuged to collect the supernatants. SOD and GSH-Px activities were measured spectrophotometrically at 550 nm and 412 nm, respectively, using a microplate reader. Enzyme activities were calculated, normalized to total protein content, and expressed as U/mg protein.

In data set [2] the test system is EA.hy926 cells. Description: NO level in Ang II-stimulated cells (Griess). In kind it is cell-based. Conditions: captopril after Ang II; control 109.8, Ang II 58.95. On the procedure: (§2) To evaluate the effect of the peptide on endothelial function, NO and ET-1 levels were measured in this study. Briefly, EA.hy926 cells were seeded in 6-well plates at a density of 4 × 10^5 cells/well and allowed to adhere overnight. After removing the medium, cells were incubated with 1 μmol/L Ang II for 12 h to induce endothelial dysfunction. Subsequently, the peptide solutions at different concentrations (0.1, 0.2, and 0.4 mg/mL) or the captopril solutions were added, and the cells were incubated for an additional 24 h. For the blank control group, the cells received no treatment. After incubation, the culture supernatants were collected and centrifuged to remove debris. Both NO and ET-1 contents in the supernatants were quantified using commercial kits according to the manufacturer’s protocols. NO content was determined using the Griess reaction (OD = 550 nm), and ET-1 levels were measured via enzyme-linked immunosorbent assay (ELISA) (OD = 450 nm). Absorbance values were recorded at the corresponding wavelengths using a microplate reader (Spark 10M, Tecan, Männedorf, Switzerland).

Data set [3] has as its system EA.hy926 cells. Kind of data set: Wound healing assay (Ang II-induced migration). It counts as cell-based. As to conditions: captopril 0.2 mg/mL, Ang II-induced. On the procedure: The effect of peptides on endothelial cell migration was evaluated using a wound healing assay. Briefly, EA.hy926 cells were seeded into 6-well plates and cultured at 37 °C in a humidified atmosphere containing 5% CO2. When the cells reached full confluence, they were treated with 1 μmol/L Ang II for 12 h to induce endothelial dysfunction. Subsequently, a straight scratch was created across the cell monolayer using a sterile 200 μL pipette tip. Detached cells were gently removed by rinsing with PBS, leaving a clear cell-free wound area. To minimize proliferation interference, cells were then incubated in high-glucose DMEM containing 1% FBS, supplemented with different concentrations of the peptides or captopril. Images of the same wound area were captured at 0 h, 6 h, and 24 h using a fluorescence microscope (Axio Observer, Zeiss, Jena, Germany), and the wound area was quantified using ImageJ software (version 1.54g).

Data set [4] deals with EA.hy926 cells. Kind of data set: ET-1 level in Ang II-stimulated cells (ELISA). In kind it is cell-based. As to conditions: captopril after Ang II; control 13.82, Ang II 15.65. The protocol:
as §2

The test system of data set [5] is EA.hy926 cells. Description: GSH-Px activity in H2O2-damaged cells. It counts as cell-based. As to conditions: captopril; vs H2O2 group. On the procedure:
as §1

Data set [6] relates to EA.hy926 cells. Kind of data set: MTT cytotoxicity assay. Conditions: EA.hy926, 24 h, 0.0625 to 1 mg/mL; ISO 10993-5 limit: viability above 70%.
Experimental: Cell culture. EA.hy926 endothelial cells were cultured in high-glucose Dulbecco’s Modified Eagle Medium (DMEM) supplemented with 10% fetal bovine serum (FBS) and 1% penicillin–streptomycin. Cells were maintained in a humidified incubator at 37 °C with 5% CO2. When cell confluence reached approximately 70–80%, subculturing was performed for subsequent experiments.
Cytotoxicity assay. The cytotoxicity of the peptides was evaluated using the MTT assay [29]. […] After incubation at 37 °C for 4 h, the supernatant was carefully removed, and 150 μL of DMSO was added to dissolve the formazan crystals. The plate was shaken for 10 min, and the absorbance was measured at 490 nm using a microplate reader.
Data set [7] relates to endothelial cells. As to conditions: 48 h of treatment; 129% in the Ang II group; cited from earlier work. An excerpt:
All three concentrations produced highly similar su ...

In data set [8] the test system is endothelial cells. The arrangement: method as in PMID 37501259. Conditions: Ang II-treated endothelial cells, cited from earlier work.

In the data set with EA.hy926 cells [1], `C[C@H](CS)C(=O)N1CCC[C@H]1C(=O)O` [captopril] registered an SOD improvement of 70.9%. Moreover, the NO level with EA.hy926 cells [2] worked out at 97.86 ± 4.47 μmol/g prot. In addition, the Migration rate worked out at 25.77 ± 2.49% in the data set with EA.hy926 cells [3] (6 h, Ang II alone 42.44) and 57.52 ± 1.92% in the data set on EA.hy926 cells [3] (24 h, Ang II alone 89.68). Also, the ET-1 content in the data set on EA.hy926 cells [4] was found to be 12.70 ± 0.48 pg/mg prot. The compound also showed a GSH-Px improvement with EA.hy926 cells [5] of 38.8%.
Turning to PYPDWSFAK [PYPDWSFAK], the “Cytotoxicity” value in the data set on EA.hy926 cells [6] was “non-cytotoxic”.
On to SPIH [soybean protein-derived peptide], for which the Endothelial wound healing with endothelial cells [7] is 92%. In addition, the NO content in the data set with endothelial cells [8] (31.4 ± 0.7 before) is 43.7 ± 0.1 µmol/L. In the data set with endothelial cells [8], the NO increase was 39.3%.
